The values that follow come from patent US8188306B2, “Heat shock protein 90 inhibitors” (University of Kansas, priority 2004, dated 2012).

The assay deals with T1, Recombinant yeast Hsp90 (Saccharomyces cerevisiae, UniProt P02829).
T1 construct: made in house
Description: Inhibition of Hsp90 ATPase activity, production of inorganic phosphate. The class given is biochemical. The conditions noted are these: incubated with ATP. Here is the method:
The present invention also evaluated the biological activity of some of the RAD amides prepared in accordance with the present invention. Recombinant yeast Hsp90 was overexpressed and purified according to the procedure of Buchner. Richter, et al., Coordinated ATP Hydrolysis by the Hsp90 Dimer. […] The yeast was a kind gift from Boris Kornikaeve at the University of Kansas Biomedical Research Service Laboratory.
The pure protein was incubated with ATP and one of three RAD amides (the quinone, the 1,4-hydroxy, or the 1,4-methoxy), and the production of inorganic phosphate was determined.

SMILES strings stand for the structures. pIC50: −log10 of the molar value.

T1 sequence (P02829 whole entry): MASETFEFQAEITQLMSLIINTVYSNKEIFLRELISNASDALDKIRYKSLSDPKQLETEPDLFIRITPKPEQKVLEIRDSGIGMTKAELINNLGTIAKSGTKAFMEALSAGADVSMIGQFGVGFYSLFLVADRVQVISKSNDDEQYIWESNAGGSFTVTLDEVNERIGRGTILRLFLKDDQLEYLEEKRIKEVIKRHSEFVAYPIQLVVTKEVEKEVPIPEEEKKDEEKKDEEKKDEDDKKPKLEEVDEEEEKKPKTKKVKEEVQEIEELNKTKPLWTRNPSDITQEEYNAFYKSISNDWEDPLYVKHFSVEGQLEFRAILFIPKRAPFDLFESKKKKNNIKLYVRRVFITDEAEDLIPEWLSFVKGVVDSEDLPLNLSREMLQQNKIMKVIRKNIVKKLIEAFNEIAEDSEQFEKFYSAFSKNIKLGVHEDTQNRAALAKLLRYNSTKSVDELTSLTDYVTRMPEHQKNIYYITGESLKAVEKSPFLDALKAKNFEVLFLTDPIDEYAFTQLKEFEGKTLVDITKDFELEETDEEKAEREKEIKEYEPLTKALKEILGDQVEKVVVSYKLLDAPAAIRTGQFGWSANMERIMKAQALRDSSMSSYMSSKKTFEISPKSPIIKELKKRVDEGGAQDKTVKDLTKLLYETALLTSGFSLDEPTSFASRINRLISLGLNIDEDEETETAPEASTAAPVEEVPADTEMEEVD

The term pIC50 denotes −log10 of the IC50, conventionally taken in molar units. With `COC(=O)c1c(O)cc(O)c(Cl)c1CCC(=O)NC1=CC(=O)C(OC)=CC1=O` [Quinone], the pIC50 reads like this: (IC50 (μm), table) 5.23; (IC50 / inhibitory activity) 5.74.
